Several values for one entry are separate records, joined by “and”; a condition that tells them apart may be missing. Equal entries are not always repeated. Entries after “also recorded” stand apart in the source; their conditions may differ. Where two headings read alike, the source gives them in different places. [ ]: non-standard residue; d: D form. dPhe(4-I) = N[C@H](Cc1ccc(I)cc1)C(=O)O
What was measured:
mMC4R [1] = conditions: antagonist/inverse agonist, ref [40],[41], cited from earlier work
female and male rats = conditions: ref [13]; cited from earlier work
[2] = ref [13],[24]; cited from earlier work
[3] = test system: females, ovariectomized or estradiol treated; conditions: cited from earlier work; for effect of ovariectomy or estradiol treatment on food intake after ligand: ref [13],[21],[34]
[4] = test system: MC3R and MC4R knockout mice; conditions: cited from earlier work
[5] = test system: wild type female and male littermate mice; experiment: Cumulative food intake after ICV administration, TSE metabolic cages; format: in vivo, mice (mixed C57BL/6J and 129/Sv)
male and female mice = format: in vivo, mice (mixed C57BL/6J and 129/Sv); conditions: 5 nmol ICV, conventional cages, pilot
[6] = test system: wild type female and male littermate mice; experiment: Respiratory exchange ratio; format: in vivo, mice (mixed C57BL/6J and 129/Sv)
[7] = test system: wild type female and male littermate mice; experiment: Energy expenditure after ICV administration, TSE metabolic cages; format: in vivo, mice (mixed C57BL/6J and 129/Sv)
[8] = test system: wild type female and male littermate mice; experiment: Locomotor activity; format: in vivo, mice (mixed C57BL/6J and 129/Sv); conditions: for total ambulatory activity (cumulative beam breaks): ICV
[9] = Solubility / precipitation of SKY2-23-7; format: physicochemical
mouse (m)MC3R = conditions: HEK293 cells, cited from earlier work
mMC4R [10] = conditions: HEK293 cells, ref [22],[23] (Doering et. al.), cited from earlier work
mMC1R = conditions: read-out: EC50 at mMC1R; agonist; ref [22],[23]; cited from earlier work
mMC5R = conditions: read-out: EC50 at mMC5R; agonist; ref [22],[23]; cited from earlier work
male and female rats = conditions: ICV, ref [5] Maranon and coworkers in 2014, cited from earlier work

**Q.** For “AGRP: endogenous MC3R antagonist and MC4R antagonist/inverse agonist AGRP (SSRRCVRLHESCLGQQVPCCDPCATCYCRFFNAFCYCRKLGTAMNPCSRT; UniProt O00253 83-132, looked up)”, which “pA2 at mMC4R” value (mMC4R [1]) is on record?
**A.** Its value is 9.4.

**Q.** What about the Ki (mMC4R [1]; read-out: Ki at mMC4R) of the same substance?
**A.** Its Ki is 0.4 to 2.5 nM.

**Q.** And the “energy expenditure, female versus male” value (female and male rats)?
**A.** Its value is “reduces energy expenditure in female rats more than in male rats”.

**Q.** And the food intake (female and male rats)?
**A.** Its food intake is “food intake is unaffected”.

**Q.** What about the energy expenditure [2] of the same substance?
**A.** The energy expenditure was “decrease energy expenditure”.

**Q.** What about the “respiratory exchange ratio (RER)” value [2] of the same substance?
**A.** Its value is “increase respiratory exchange ratio”.

**Q.** What about the “effect of ovariectomy on ligand-dependent energy expenditure” value ([3]; females, ref [13]) of the same substance?
**A.** Its value is “ovariectomy can blunt”.

**Q.** What about the “effect of ovariectomy or estradiol treatment on food intake after ligand” value [3] of the same substance?
**A.** The value was “minimal effects on food intake”.

**Q.** And the food intake ([4]; ICV, MC3R and MC4R male knockout mice, ref [8],[12])?
**A.** The food intake was “increased food intake”.

**Q.** What does the source list for Ac-W[dPhe(4-I)]RW-NH2 [SKY2-23-7]?
**A.** cumulative food intake ([5]; female, 2.5 nmol ICV, 6–24 hours post-administration): significant increase in food intake; cumulative food intake, dose response ([5]; female, 2.5 nmol, 1 nmol, and 0.5 nmol ICV): A dose response pattern is observed; cumulative food intake ([5]; female, 5 nmol ICV): no significant effect; cumulative food intake ([5]; female, 7.5 nmol ICV): no significant effect; cumulative food intake ([5]; male, 2.5 nmol ICV): no significant effect; cumulative food intake ([5]; male, 7.5 nmol ICV, 2–24 hours post-administration): significant increase in food intake; cumulative food intake, dose response ([5]; male, ICV, metabolic cages, p<0.0001): dose dependent increase in food intake; food intake (male and female mice; female, trend of increase in food intake): not observed; food intake (male and female mice; male): an increase in food intake was observed; average RER ([6]; female, 2.5 nmol ICV, both dark and light cycles, p<0.01): significantly increased; RER ([6]; female, 7.5 nmol ICV): no effect; RER ([6]; male, 2.5 nmol ICV): minimal effect; hourly RER ([6]; male, 7.5 nmol ICV, early light cycle 15–18 hrs post-administration): significantly increased; total average RER ([6]; male, 7.5 nmol ICV, entire light cycle (14–26 hrs)): No significant effect; total average RER ([6]; male, 7.5 nmol ICV, first dark cycle (0–14 hrs), p<0.01): increased; total average RER ([6]; male, 7.5 nmol ICV, first two hours following injection, p<0.01): increased; hourly RER ([6]; male, 7.5 nmol ICV, individual time points 2–7 and 10–14 hours): increased; energy expenditure ([7]; female, 2.5 nmol ICV, p<0.001, observed at 5, 6, 15, 21, and 22 hours): significant increase in energy expenditure; total calories burned in 24 hours ([7]; female, 7.5 nmol ICV, p<0.05): significant decrease in total calories burned; energy expenditure (trend) ([7]; male, 7.5 nmol ICV): trended towards decreasing energy expenditure; hourly energy expenditure normalized to weight (Kcal/hr/kg) ([7]; male, 7.5 nmol ICV, at 4, 20, 21, 23 and 24 hours, compared to control): decrease in energy expenditure; total calories spent in 24 hours ([7]; male, ICV): no effect; energy expenditure ([7]; male, doses lower than 7.5 nmol ICV): No significant effect; hourly activity ([8]; female, 2.5 nmol ICV, 5 hours post administration): Increased activity; hourly activity ([8]; female, 2.5 nmol ICV, 24 hours post administration): significant decrease in activity; total activity ([8]; female, 5 nmol ICV, light cycle, p<0.05): significant decrease in total activity; total activity ([8]; female, other doses ICV, dark cycle (0–14 hrs), p=0.28): no other doses resulted in a significant changes in total activity; total activity ([8]; female, other doses ICV, light cycle (14–26 hrs), p=0.65): no other doses resulted in a significant changes in total activity; hourly activity ([8]; male, 7.5 nmol ICV, time points 8, 15, 18, and 24 hours): significant increases in activity; total ambulatory activity (cumulative beam breaks) ([8]; male, dark cycle (0–14 hrs), p=0.39): no significant effect; total ambulatory activity (cumulative beam breaks) ([8]; male, light cycle (14–26 hrs), p=0.64): no significant effect; solubility in saline ([9]; added to saline alone): precipitated out; solubility limit on dosing ([9]; doses above 7.5 nmol ICV, male mice): higher dosing was prevented due to the solubility; pA2 at mMC3R (mouse (m)MC3R; Schild analysis, antagonist, ref [22],[23] (Doering et. al.)): 5.43±0.16; agonist activity at mMC3R (mouse (m)MC3R; up to 100 µM, ref [22],[23] (Doering et. al.)): minimal agonist activity; also recorded: lacks the mMC3R partial agonism; pA2 at mMC4R (mMC4R [10]; Schild analysis, antagonist): 7.83 and 7.83±0.16; agonist activity at mMC4R (mMC4R [10]; up to 100 µM): minimal agonist activity; EC50 (mMC1R): 2000 ± 600 nM; EC50 (mMC5R): 2800 ± 1100 nM

**Q.** Which “sex difference in food intake effect” value ([4]; MC3R and MC4R knockout mice, same genotype, ref [15],[16]) does the source give for MTII here?
**A.** Its value is “no differences reported between male and female mice”.

**Q.** What about the food intake ([4]; MC3R and MC4R knockout mice, ref [15],[16]) of the same substance?
**A.** Its food intake is “decrease food intake”.

**Q.** For SHU9119, which “partial agonism at mMC3R” value (mouse (m)MC3R; at 1 µM, ref [22] (Doering et. al.)) is on record?
**A.** Its value is 50%.

**Q.** And the energy expenditure [2]?
**A.** The energy expenditure was “decrease energy expenditure”.

**Q.** What about the “effect of ovariectomy or estradiol treatment on food intake after ligand” value [3] of the same substance?
**A.** The value was “minimal effects on food intake”.

**Q.** What about the blood pressure (male and female rats; female rats) of the same substance?
**A.** Its blood pressure is “no effect on blood pressure”.

**Q.** What about the blood pressure (male and female rats; male rats) of the same substance?
**A.** The blood pressure was “significantly reduced blood pressure”.

— PMC5687811 (ACS chemical neuroscience, 2016)
